This note sets out measurements from patent US8722717B2, “3-triazolylphenyl-substituted sulphide derivatives as acaricides and insecticides” (Bayer CropScience AG, priority 2009, dated 2014).

For series [1], the system named is larvae of the mustard beetle (Phaedon cochleariae). The series can be described thus: Phaedon test (PHAECO spray treatment). The following applies: foliar, spray on Chinese cabbage leaf discs, application rate 500 g/ha, read-out: effect (100% means that all of the beetle larvae have been killed). In kind it is in vivo. As for the experimental part:
(§1) Solvents: 78.0 parts by weight of acetone • • 1.5 parts by weight of dimethylformamide Emulsifier: 0.5 part by weight of alkylaryl polyglycol ether An appropriate preparation of active compound is prepared by mixing 1 part by weight of active compound with the stated amounts of solvent and emulsifier and diluting the concentrate with emulsifier-containing water to the desired concentration. Leaf discs of Chinese cabbage (Brassica pekinensis) are sprayed with a preparation of active compound at the desired concentration and, after they have dried, are populated with larvae of the mustard beetle (Phaedon cochleariae). After the desired time, the effect in % is determined. Here, 100% means that all of the beetle larvae have been killed; 0% means that no beetle larvae have been killed.

Series [2] concerns greenhouse red spidermite (Tetranychus urticae). Description: Tetranychus test; OP resistant (TETRUR spray treatment), Example 5. In kind it is in vivo. To be noted: foliar, 144 h, spray on bean leaf discs, after 6 days, read-out: effect (100% means that all of the mites have been killed); for pest or weed control at 100 g/ha: application rate 100 g/ha; for pest or weed control at 500 g/ha: application rate 500 g/ha. As for the experimental part:
as §1, with “bean (Phaseolus vulgaris) infested by all stages of the greenhouse red spidermite (Tetranychus urticae)” for “Chinese cabbage (Brassica pekinensis)”, “concentration.” for “concentration and, after they have dried, are populated with larvae of the mustard beetle (Phaedon cochleariae).”, “6 days,” for “the desired time,”, “mites” for “beetle larvae”

Series [3] can be described thus: log P by HPLC/LC-MS on reversed-phase C18, formic acid method [b]. In kind it is physicochemical. The following applies: reversed-phase C18 HPLC column; pH 2.7, 0.1% aqueous formic acid and acetonitrile; read-out: logP (HCOOH). Here is the method:
The log P values reported in the table above and in the preparation examples were determined in accordance with EEC Directive 79/831 Annex V.A8 by HPLC (High Performance Liquid Chromatography) on reversed-phase columns (C 18), with the following methods: ^[b] The determination is made by LC-MS in the acid range at pH 2.7 with 0.1% aqueous formic acid and acetonitrile (containing 0.1% formic acid) as eluents; linear gradient from 10% acetonitrile to 95% acetonitrile. Calibration took place with unbranched alkan-2-ones (having 3 to 16 carbon atoms) of known log P values (log P values determined from the retention times by linear interpolation between two successive alkanones).

With `Cc1cc(F)c(-n2cnc(C(F)(F)F)n2)cc1SCC(F)(F)C(F)F` [I-A-24], the pest or weed control at 500 g/ha in series [1] was determined as 100%. For the same molecule, the pest or weed control at 100 g/ha in series [2] came to 100%. The chromatographic logP in series [3] turned out to be 3.87.
`Cc1cc(C)c([S+]([O-])CC#N)cc1-n1cnc(C(F)(F)F)n1` (stereo not shown) [I-A-8]: the pest or weed control at 500 g/ha in series [2] turned out to be 100%. In addition, in series [3], the chromatographic logP was 2.07.
Regarding `Cc1cc(Cl)c(-n2cnc(C(F)(F)F)n2)cc1[S+]([O-])CC(F)(F)C(F)F` (stereo not shown) [I-A-23], the pest or weed control at 500 g/ha in series [1] and in series [2] was 100% in each case. Also, in series [3], the chromatographic logP came out at 3.01.
Regarding `Cc1cc(F)c(-n2cnc(C(F)(F)F)n2)cc1[S+]([O-])CC(F)F` (stereo not shown) [I-A-19], the pest or weed control at 500 g/ha in series [1] was 100%. Besides, the pest or weed control at 100 g/ha in series [2] worked out at 100%. The chromatographic logP in series [3] worked out at 2.33.
As to `Cc1cc(Cl)c(-n2cnc(C(F)(F)F)n2)cc1SCC#N` [I-A-12], the pest or weed control at 500 g/ha in series [2] was found to be 100%. Besides, the chromatographic logP in series [3] came to 3.12.
Consider `Cc1cc(Cl)c(-n2cnc(C(F)(F)F)n2)cc1[S+]([O-])CC(F)(F)C(F)(F)F` (stereo not shown) [I-A-14], for which the pest or weed control at 500 g/ha in series [1] and in series [2] was 100% each time. Also, the chromatographic logP in series [3] turned out to be 3.4.
On to `Cc1cc(Cl)c(-n2cnc(C(F)(F)F)n2)cc1SCC(F)(F)C(F)F` [I-A-17], for which the pest or weed control at 500 g/ha in series [1] was determined as 100%. In addition, the pest or weed control at 100 g/ha in series [2] came out at 100%. In addition, the chromatographic logP in series [3] was determined as 4.06.
Consider `Cc1cc(Cl)c(-n2cnc(C(F)(F)F)n2)cc1[S+]([O-])CC(F)F` (stereo not shown) [I-A-21], for which the pest or weed control at 500 g/ha in series [2] stood at 100%. Also, the chromatographic logP in series [3] was 2.54.
As for `Cc1cc(Cl)c(-n2cnc(C(F)(F)F)n2)cc1SCC(F)F` [I-A-16], the pest or weed control at 500 g/ha in series [1] stood at 100%. In series [2], the pest or weed control at 100 g/ha was 100%. Further, the chromatographic logP in series [3] stood at 3.75.
In the case of `Cc1cc(C)c(-n2cnc(C(F)(F)F)n2)cc1SCC#N` [I-A-9], the pest or weed control at 100 g/ha in series [2] was 100%. In series [3], the chromatographic logP was 3.08.
Turning to `Cc1cc(F)c(-n2cnc(C(F)(F)F)n2)cc1[S+]([O-])CC(F)(F)C(F)(F)F` (stereo not shown) [I-A-25], in series [1], the pest or weed control at 500 g/ha was determined as 100%. In addition, the pest or weed control at 100 g/ha in series [2] is 100%. For the same molecule, the chromatographic logP in series [3] is 3.22.
Take `Cc1cc(F)c(-n2cnc(C(F)(F)F)n2)cc1SCC(F)(F)C(F)(F)F` [I-A-22]: the pest or weed control at 100 g/ha in series [2] came out at 100%. Further, in series [3], the chromatographic logP was 4.4.
For the molecule `Cc1cc(F)c(-n2cnc(C(F)(F)F)n2)cc1SCC#N` [I-A-13], the pest or weed control at 500 g/ha in series [2] came to 100%. Moreover, the chromatographic logP in series [3] was found to be 2.93.
As for `Cc1cc(Cl)c(-n2cnc(C(F)(F)F)n2)cc1SCC(F)(F)C(F)(F)F` [I-A-26], the pest or weed control at 100 g/ha in series [2] was determined as 90%. For the same molecule, in series [3], the chromatographic logP amounted to 4.57.
Turning to `Cc1cc(F)c(-n2cnc(C(F)(F)F)n2)cc1[S+]([O-])CC(F)(F)C(F)F` (stereo not shown) [I-A-18], in series [1], the pest or weed control at 500 g/ha was 100%. The pest or weed control at 100 g/ha in series [2] was 100%. Also, the chromatographic logP in series [3] came out at 2.79.
On to `Cc1cc(F)c(-n2cnc(C(F)(F)F)n2)cc1[S+]([O-])CC#N` (stereo not shown) [I-A-15], for which, in series [2], the pest or weed control at 500 g/ha turned out to be 100%. In addition, the chromatographic logP in series [3] came to 1.99.
On to `Cc1cc(F)c(-n2cnc(C(F)(F)F)n2)cc1SCC(F)F` [I-A-6], for which the pest or weed control at 500 g/ha in series [1] was 100%. Moreover, the pest or weed control at 100 g/ha in series [2] is 100%. The chromatographic logP in series [3] turned out to be 3.57.
As for `Cc1ccc(-n2cnc(C(F)(F)F)n2)c(C)c1` [IV-A-1, 3-(Trifluoromethyl)-1-(2,4-dimethylphenyl)-1H-1,2,4-triazole], the chromatographic logP in series [3] was determined as 3.19.
Regarding `Cc1cc(C)c([S+]([O-])CCC(F)(F)F)cc1-n1cnc(C(F)(F)F)n1` (stereo not shown) [I-A-7], the pest or weed control at 100 g/ha in series [2] was 90%. The chromatographic logP in series [3] is 2.86.
